The values that follow come from patent US6583132B1, “Oxidant scavengers” (Duke University, priority 1993, dated 2003).

The test system of assay [1] is Rat pulmonary epithelial cell cultures (L2). Kind of assay: Paraquat-induced injury of L2 cells, LDH release. Type of assay: cell-based. As to conditions: 100 μM; Paraquat 2.5 mM, 48 hours.
In assay [2] the test system is Calf pulmonary endothelial cell (CPA-47) line. Kind of assay: Glucose oxidase hydrogen peroxide injury of CPA-47, Cr^51 release. Type of assay: cell-based. As to conditions: glucose oxidase 100 Mu/ml, 4 hours; 1 hour pretreatment. Here is the method: (§1) Calf pulmonary endothelial cell (CPA-47) line was grown to near confluence in 12-well plates with F-12K medium containing 10% fetal calf serum. CPA-47 cells were loaded with Cr^51 as previously described by Simon et al J. Clin. Invest. 78:1375 (1986) in high glucose minimum essential medium (DMEM). Cells were pretreated with MnTBAP (100 μM) for 1 hour and then exposed to various concentrations of hydrogen peroxide generator, glucose oxidase, for 4 hours. Cell injury was then quantitated as the specific Cr^51 release from CPA-47 cells which has been adjusted for spontaneous Cr51 release.
as §1, with “(J.” for “J.”, “(1986))” for “(1986)”, “various concentrations of either: (A) MnTBAP; (B) MnTMPyP; (C) ZnTBAP; or (D) CuZnSOD” for “MnTBAP (100 μM)”, “the” for “various concentrations of”, “oxidase (100 Mu/ml),” for “oxidase,”, “Cr^51” for “Cr51”

Assay [3] in a line: SOD activity (McCord and Fridovich). The assay is classed as biochemical. Here is the method: SOD activity can be monitored in the presence and absence of EDTA using the method of McCord and Fridovich (J. Biol. Chem. 244:6049 (1969)). The efficacy of a mimetic can be determined by measuring the effect of the mimetic on the growth of a SOD null E. coli strain versus a wild type strain. Specifically, wild type E. coli (AB1157) and SOD null E. coli. (JI132) can be grown in M9 medium containing 0.2% casamino acids and 0.2% glucose at pH 7.0 and 37° C.; growth can be monitored in terms of turbidity followed at 700 nm spectrophotometrically. Active mimetics can be tested for toxicity in mammalian cell culture by measuring lactate dehydrogenase (LDH) release. Specifically, rat L2 cells (a lung Type II like cell; (Kaighn and Douglas, J. Cell Biol. 59:106a (1973)) can be grown in Ham's F-12 medium with 10% fetal calf serum supplement at pH 7.4 and 37° C.; cells can be seeded at equal densities in 24 well culture dishes and grown to approximately 90% confluence; SOD mimetics can be added to the cells at log doses (eg micromolar doses in minimal essential medium (MEM)) and incubated for 24 hours. Toxicity can be assessed by morphology and by measuring the release of the cytosolic injury marker, LDH (eg on a thermokinetic plate reader), as described by Vassault (In: Methods of Enzymatic Analysis, Bergmeyer (ed) pp. 118-26 (1983); oxidation of NADH is measured at 340 nm). Efficacy of active mimetics can be assessed by determining their ability to protect mammalian cells against methylviologen (paraquat)-induced toxicity. Specifically, rat L2 cells grown as described above and seeded into 24 well dishes can be pre-incubated with various concentrations of the SOD mimetic and then incubated with a concentration of methylviologen previously shown to produce an LC75 in control L2 cells. Efficacy of the mimetic can be correlated with a decrease in the methylviologen-induced LDH release (St. Clair et al, FEBS Lett. 293:199 (1991)). The efficacy of SOD mimetics can be tested in vivo with mouse and/or rat models using both aerosol administration and parenteral injection. For example, male Balb/c mice can be randomized into 4 groups of 8 mice each to form a standard 2×2 contingency statistical model. Animals can be treated with either paraquat (40 mg/kg, ip) or saline and treated with SOD mimetic or vehicle control. Lung injury can be assessed 48 hours after paraquat treatment by analysis of bronchoalveolar lavage fluid (BALF) damage parameters (LDH, protein and % PMN) as previously described (Hampson et al, Tox. Appl. Pharm. 98:206 (1989); Day et al, J. Pharm. Methods 24:1 (1990)). […]
^2SOD activity determined as described by McCord and Fridovich, J. Biol. Chem. […] (1969).

The test system of assay [4] is calf pulmonary artery endothelial cell cultures (CPA-47). Kind of assay: Paraquat-induced injury of CPA-47 cells, LDH release. Type of assay: cell-based. The settings on record: varying concentrations; Paraquat 2 mM, 24 hours. On the procedure:
Calf pulmonary artery endothelial cell cultures (CPA-47) were grown to confluence in Ham's F-12K medium with 10% fetal bovine serum at pH 7.4 and 37° C. Cells were then trypsinized and seeded at equal densities in 24 well plates and grown to 90% confluence. Cells were washed and pre-incubated for 1 hour with varying concentrations of ZnTBAP in MEM or MEM only. Paraquat (2 mM) was added and allowed to incubate for 24 hours. Cell injury was quantitated by measuring the release of cellular lactate dehydrogenase (LDH) into the medium.

The target in assay [5] is T1, EC-SOD (Mus musculus, UniProt O09164).
T1 construct: The brains were removed and assayed for EC-SOD and CuZn SOD activity as described above; from tissue; host or cells: mouse brain; EC-SOD separated from the homogenate on concanavalin A sepharose
T1 sequence (O09164 25-251): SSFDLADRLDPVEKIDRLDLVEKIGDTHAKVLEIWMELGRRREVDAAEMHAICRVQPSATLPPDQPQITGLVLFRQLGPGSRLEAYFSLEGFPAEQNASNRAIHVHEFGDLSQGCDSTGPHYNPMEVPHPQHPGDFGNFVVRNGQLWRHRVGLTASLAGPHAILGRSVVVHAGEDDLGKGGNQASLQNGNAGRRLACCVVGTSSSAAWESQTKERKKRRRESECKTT
Kind of assay: Brain EC-SOD activity after diethyldithiocarbamate. As to conditions: transgenic and nontransgenic mice, sacrificed one hour later. Type of assay: in vivo. On the procedure:
(§2) Separation of SOD isoenzymes by concanavalin A sepharose chromatography: Tissues taken from 3 mice were weighed, then combined and homogenized in 10 volumes of ice-cold 50 mM potassium phosphate, pH 7.4, with 0.3 M. KBr, 3 mM diethylenetriaminepentaacetic acid, and 0.5 mM phenylmethylsulfonyl fluoride. Separation of EC-SOD from CuZn SOD and Mn SOD was accomplished by passing tissue homogenates over a concanavalin A sepharose column as described (Marklund et al, Clin. Chim. Acta 126:4 (1982)). SOD activity: EC-SOD activity and total SOD activity (CuZn SOD and Mn SOD) remaining after EC-SOD extraction were measured by inhibition of cytochrome C reduction at pH 10, as previously described (Crapo et al, Methods Enzymol. 53:382 (1978)). Total protein was determined by the BCA protein assay (Pierce, Rockford, Ill.). The SOD activities were then expressed as units/mg total protein. To determine the extent of EC-SOD and CuZn SOD inhibition by diethyldithiocarbamate, mice were given diethyldithiocarbamate and sacrificed one hour later. The brains were removed and assayed for EC-SOD and CuZn SOD activity as described above.

Assay [6] concerns the target T2, CuZn SOD (Mus musculus, UniProt P08228).
T2 construct: from tissue; host or cells: mouse brain; homogenate fraction left after removal of EC-SOD on concanavalin A sepharose
Kind of assay: Brain CuZn SOD activity after diethyldithiocarbamate. The assay is classed as in vivo. The settings on record: transgenic and nontransgenic mice, sacrificed one hour later. Here is the method:
as §2

The nature of assay [7]: CNS oxygen toxicity, 6 ATA hyperbaric oxygen exposure. The assay is classed as in vivo, mice. As to conditions: 6 ATA oxygen 25 minutes, DDC 400 mg/kg i.p. or LNNA 20 mg/kg i.p. On the procedure:
Oxygen exposures: 7-8 week old mice were exposed to hyperbaric oxygen five at a time in a small-animal chamber (Bethlehem, Pa.). After flushing the chamber with pure oxygen, compression to 50 meters (6 ATA) was performed within 5 minutes. The oxygen concentration in the chamber was monitored continuously with a Servomex oxygen analyzer (model 572, Sybron, Norwood, Mass.) and maintained at ≳99%. The carbon dioxide concentration was analyzed from intermittent samples of chamber gas with an IR detector (IR Industries, Santa Barbara, Calif.) and was not allowed to rise above 0.1%. The chamber temperature was maintained at 25-26° C., but the compression of oxygen in the chamber raised the temperature to 30-32° C. transiently, but an environmental control system restored the normal chamber temperature within 3 minutes. […] The mice were observed continuously for signs of oxygen toxicity from the beginning of the exposure until 4 hours after removal from the chamber. The time to the first generalized convulsion (seizure latency) and the time to death were recorded. These exposure conditions are designed to cause CNS oxygen toxicity without appreciable evidence of pulmonary oxygen toxicity.
Treatment with diethyldithiocarbamate: One hour prior to exposure to 6 ATA oxygen, mice were given either i.p. injections of either 0.008 cc/g saline or 400 mg/kg diethyldithiocarbamate dissolves in normal saline (0.008 cc/g). The mice were then exposed to 6 ATA oxygen for 25 minutes as described above.
Treatment with β-mercaptoethanol: One hour prior to exposure to 6 ATA oxygen, mice were given either i.p. injections of 0.008 cc/g saline or 180 mg/kg β-mercaptoethanol (0.008 cc/g). This dose of β-mercaptoethanol was selected because it contains an equal number of reducing thiols as the dose of diethyldithiocarbamate. The mice were then exposed to 6 ATA oxygen for 30 minutes as described above.
Treatment with N-ω-nitro-L-arginine, an inhibitor of nitric oxide synthase: Ten minutes prior to beginning compression, 0.008 cc/g saline or 20 mg/kg (0.008 cc/g) N-ω-nitro-L-arginine dissolved in sterile water was given i.p to the transgenic and nontransgenic mice. Mice were then exposed at 6 ATA oxygen for 25 or 75 minutes as described above.

T2 sequence (P08228 whole entry): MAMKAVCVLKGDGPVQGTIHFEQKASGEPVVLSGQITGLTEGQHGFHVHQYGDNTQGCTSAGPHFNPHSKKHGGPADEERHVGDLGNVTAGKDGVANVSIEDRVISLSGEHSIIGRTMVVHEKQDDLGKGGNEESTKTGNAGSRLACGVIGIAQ

Regarding `C[n+]1ccc(-c2c3nc(c(-c4cc[n+](C)cc4)c4ccc([n-]4)c(-c4cc[n+](C)cc4)c4nc(c(-c5cc[n+](C)cc5)c5ccc2[n-]5)C=C4)C=C3)cc1.[Mn+3]` [MnTMPyP, Mn(III) tetrakis (1-methy-4-pyridyl)porphyrin], the “paraquat-induced LDH release” value in assay [1] is reported as “decrease paraquat-induced LDH release”. Besides, the “hydrogen peroxide-induced endothelial cell injury” value in assay [2] is reported as “reduction”.

On to `O=C(O)c1ccc(-c2c3nc(c(-c4ccc(C(=O)O)cc4)c4ccc([n-]4)c(-c4ccc(C(=O)O)cc4)c4nc(c(-c5ccc(C(=O)O)cc5)c5ccc2[n-]5)C=C4)C=C3)cc1.[Zn+2]` [ZnTBAP, reference compound], for which the “SOD activity, fold less than MnTBAP” value in assay [3] is 10 fold. For the same molecule, the “paraquat-induced LDH release / injury” value in assay [4] was “does not protect against paraquat-induced injury”. For the same molecule, the “hydrogen peroxide-induced endothelial cell injury” value in assay [2] is “does not reduce”.

Consider `CCN(CC)C(=S)S` [diethyldithiocarbamate], for which the inhibition at 400 mg/kg stood at 80% in assay [5] and 60% in assay [6]. Moreover, the values for the Survival in assay [7] (nontransgenic mice) and in assay [7] (transgenic mice) were 93% and 100%, respectively.
